This note sets out measurements from PubChem BioAssay AID652041 (Broad Institute, 2013).

The assay relates to P. falciparum HB3 in RBCs, SYBR Green DNA fluorescence. In words: antimalarial activity against intraerythrocytic HB3 parasites – HB3 strain, red blood cells, SYBR Green, cherry-picked, dose response (AID 652041).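 Also: parasites exposed to compound for 72 hours before the DNA read.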
Turning to `FC(F)(F)c1nc(SCc2ccc(Cl)cc2Cl)n[nH]1`, the AC35 was 40 µM. The figure for `O=C(NCc1ccncc1)c1ccccc1Nc1ccc(SC(F)F)cc1` is 21.5 µM; for `COc1ccc(O)c(C(=O)CC(=O)c2ccc(F)cc2)c1` it is 16.1 µM. The figure for `Cc1cc(Cl)ccc1C(=O)C1CCCN(C(=O)c2cncs2)C1` (stereo unspecified) is 33.5 µM. The value for `O/N=C/c1cc(Br)ccc1OCc1ccccc1F` was 29.2 µM. For `O/N=C/c1ccccc1OCc1ccc(Cl)cc1`, the AC35 was 34.4 µM. The figure for `O=C1c2ccccc2-n2c1nc1ccccc1c2=O` is 0.0617 µM; for `COc1ccc(O)c(C(=O)CC(=O)c2ccccc2C)c1` it is 13.9 µM.

On to `CC(C)=CCc1c(O)ccc(C(=O)Cc2ccccc2)c1O`, for which the AC35 is 11 µM.

With `O=S(=O)(Nc1ccccc1)c1ccc(Oc2ncc(C(F)(F)F)cc2Cl)cc1`, the AC35 is 25.1 µM. The figure for `CCCCCCCn1c(=O)c(C(=O)OC)c(N)c2ccccc21` is 4.22 µM; for `Cc1ccc(O)c(-c2cc(-c3ccccc3C)[nH]n2)c1` it is 6.3 µM; for `Nc1cc2nc3ccccc3oc-2cc1=O` it is 1.01 µM. The value for `O/N=C(\c1ccc(Cl)cc1Cl)c1ncc(C(F)(F)F)cc1Cl` was 11.6 µM. Turning to `CCCCCCCCCCOC(=O)Cn1c(COc2ccccc2OC)[n+](C)c2ccccc21`, the AC35 was 0.346 µM. The figure for `Cc1cccc(NC(=S)NC(C)CCc2ccccc2)c1` (stereo unspecified) is 12.7 µM. The figure for `CC1=CC(C)(C)N(S(=O)(=O)c2ccc(C)cc2)c2ccc(C)cc21` is 18.4 µM; for `CN(C)c1nc(-c2ccccn2)nnc1-c1ccccc1` it is 2.54 µM. The figure for `COc1ccc(N(C)S(=O)(=O)c2ccc(Cl)c(C(=O)NNC(=O)c3ccccc3O)c2)cc1` is 35.8 µM; for `CC[n+]1c(/C=C/C=C/c2ccc(N(C)C)cc2)sc2ccccc21` it is 2.68 µM.

Turning to `O=C(OCC(=O)C12CC3CC(CC(C3)C1)C2)c1ccc(O)cc1`, the AC35 was 23.4 µM. The value for `O=C(NC(=S)N(CCc1ccccc1)CCc1ccccc1)c1ccco1` was 13.3 µM; that for `C=C1C(=O)C23CCC4C(C)(C(=O)OC)CCCC4(C)C2CCC1(O)C3` (stereo unspecified) was 1.72 µM. The value for `Cc1csc(NC(=O)C(C)Oc2ccc(Cl)cc2C)n1` (stereo unspecified) was 23 µM; that for `CC12CC3(C)CC(C)(C1)CC(NC(=O)N1CCCC1)(C2)C3` was 14.9 µM; that for `O=C(NOC(=O)c1ccccc1)c1ccccc1` was 20.1 µM. Take `CC(=O)NC(c1cccc([N+](=O)[O-])c1)c1ccc2cccnc2c1O` (stereo unspecified): the AC35 was 1.77 µM.

In the case of `Cc1ccc(NC(=S)c2nc3ccccc3[nH]2)c(C)c1`, the AC35 was 5.68 µM. Consider `CC(=O)C1=C(c2cccc([N+](=O)[O-])c2)N(C(C)=O)n2c(C)nnc2S1`, for which the AC35 is 0.59 µM. For `O=c1c2ccccc2nc(-c2ccc(-c3ccccc3)cc2)n1-c1ccncc1`, the AC35 is 18.3 µM. The figure for `O=C(Nc1ccc(Cl)cc1C(=O)Nc1ccc(Br)cn1)c1ccco1` is 16.5 µM; for `Cc1cc(C)c(C(=O)CC(=O)c2cccnc2)c(C)c1` it is 8.29 µM.

As for `Cc1c(Cc2ccccc2)c(NCCN(C)C)n2c(nc3ccccc32)c1C#N`, the AC35 was 6.66 µM. The value for `S=C(NCc1ccco1)Nc1ccc(Oc2ccc(Cl)cc2)cc1` was 16.8 µM; that for `COc1ccccc1C1CCN(C(=O)c2ccc(Cl)cc2)CC1` was 28.6 µM; that for `O=C1c2cccc(Cl)c2C(=O)c2c1cccc2N1CCCC1` was 20.9 µM. The value for `CCc1ccc(S(=O)(=O)N(C(=O)c2ccncc2)c2ccc(OC(=O)c3ccncc3)cc2)cc1` was 41.7 µM; that for `CC(C)(C)C(O)C(Cc1ccccc1Cl)n1cncn1` (stereo unspecified) was 39.3 µM; that for `O=C(Nc1cc(Oc2ccc(Cl)cc2)cc([N+](=O)[O-])c1)c1ccco1` was 2.14 µM. The figure for `O=C(Nc1nnc(-c2cccs2)o1)c1cccc(Oc2ccccc2)c1` is 19.4 µM.

Take `C=CCn1c(-c2cc(-c3ccc(C)cc3)nc3ccccc23)n[nH]c1=S`: the AC35 is 14.1 µM. The figure for `COc1cccc(CC(=O)Nc2ccc3nc(C)sc3c2)c1` is 43.9 µM. The figure for `O=C(O)c1ccccc1NC(c1ccccc1)c1ccc2cccnc2c1O` (stereo unspecified) is 6.46 µM. The value for `CCCCNC(=S)N/N=C1\CCCCc2ccccc21` was 16.8 µM; that for `O=C(NCC1CC1(Cl)Cl)Nc1ccc(Cl)c(Cl)c1` (stereo unspecified) was 5.48 µM; that for `CC1CCc2c(C(=O)Nc3ccccn3)csc2C1` (stereo unspecified) was 35.6 µM. As to `CNc1cc(CSC)nc(SCc2ccc(Cl)cc2Cl)n1`, the AC35 is 22.3 µM. With `Oc1cccc2ccc(Nc3ccccn3)nc12`, the AC35 was 0.321 µM. The figure for `CCCCCCSc1ccc(-c2nc3ccccn3c2NCCCC)cc1` is 6.94 µM; for `CC(=O)NC(c1ccc(C)cc1)c1cc([N+](=O)[O-])c2cccnc2c1O` (stereo unspecified) it is 11.2 µM.

Consider `Cc1ccc(C(=O)C(SC(C)(C)C)n2cncn2)cc1` (stereo unspecified), for which the AC35 is 38.7 µM. Turning to `O/N=C(\c1ccc(Cl)cc1)c1cc2ccccc2o1`, the AC35 is 16.4 µM.

`CC1CCN(c2nc(-c3ccncc3)nc3ccccc23)CC1`: the AC35 is 8.17 µM.

Turning to `COc1ccc(Sc2nc(-c3ccccn3)ncc2OC)cc1`, the AC35 is 3.53 µM. The figure for `CC(C)(C)C(=O)C(Oc1ccc(Cl)cc1)n1cncn1` (stereo unspecified) is 36.1 µM; for `Cc1ccc(NC2(c3nnnn3-c3c(C)cccc3C)CCCCC2)cc1` it is 18 µM; for `c1ccc(CSc2ccc(-c3ccccn3)nn2)nc1` it is 23 µM. The value for `Oc1ccc(Br)cc1/C=N/Nc1ccccn1` was 1.61 µM.

Consider `CC(C)C(=O)NC(c1cccc([N+](=O)[O-])c1)c1ccc2cccnc2c1O` (stereo unspecified), for which the AC35 is 0.826 µM. For `Oc1c(CN2CCCC2)cc(COCc2ccccc2)c2cccnc12`, the AC35 is 7.31 µM. The figure for `Cc1c(C2(O)CCCCC2)[nH]c2ccc(C(F)(F)F)cc12` is 17.3 µM; for `Fc1ccc(CCNC(=S)Nc2ccc(F)c(Cl)c2)cc1` it is 14.1 µM. The figure for `CCCCCCn1c(=O)c(C(=O)Nc2ncccc2C)c(O)c2ccccc21` is 4.29 µM; for `OCCN(CCO)c1cc2c3ccccc3ccc2c2ccccc12` it is 1.21 µM; for `O=CC1=C(c2ccccc2)Oc2ccccc2O1` it is 7.46 µM. The value for `C=CCN(CC=C)C(=S)NC(=O)c1ccc(C)c(Br)c1` was 9.72 µM. `Cc1c(C(=O)O)cccc1-c1ccc(/C=N/Nc2ccc(Br)cc2)o1`: the AC35 was 21.3 µM. The figure for `O=[N+]([O-])c1ccc(Sc2cccc[n+]2[O-])c2nonc12` is 1.41 µM. The value for `O=C(Nc1ccc(Br)c(C(F)(F)F)c1)c1ccccc1` was 10.7 µM; that for `O=C(Nc1nnc(-c2ccccc2)o1)c1ccc(Cl)cc1` was 10.7 µM; that for `COc1cccc(/C=N/Nc2ncnc(Cl)c2N)c1O` was 0.942 µM. On to `O=C(/C(=N/N=C/c1ccc(O)c(O)c1O)c1ccccc1)c1ccccc1`, for which the AC35 is 3.7 µM. The figure for `COc1cc([N+](=O)[O-])cc(/C=N/NC(=O)c2cncc(Br)c2)c1O` is 16.8 µM; for `O=Cc1cc(N=Nc2ccccc2Cl)ccc1O` it is 2.27 µM; for `Cc1cccc2sc(NNC(=O)c3ccc(S(=O)(=O)N4CCCC(C)C4)cc3)nc12` (stereo unspecified) it is 4.44 µM.

For `CCCCC(=O)NC(=S)NNC(=O)CCc1ccccc1`, the AC35 is 23 µM. The value for `CCN1C(=O)C(CC(=O)Nc2ccccc2Cl)N(NC(=O)c2cccc(F)c2)C1=S` (stereo unspecified) was 21.8 µM. As to `CCC(Oc1ccc(Br)cc1Cl)C(=O)Nc1nnc(C2CC2)s1` (stereo unspecified), the AC35 is 33.3 µM.

On to `O=C(O)CSc1nc(-c2ccc(Cl)cc2)nc2c1oc1ccccc12`, for which the AC35 is 28.6 µM.

As for `COc1ccccc1-c1sc2cc3c(cc2c1C#Cc1cncn1C)OCO3`, the AC35 is 2.96 µM. The figure for `Cc1ccc(-n2nnnc2SCC(=O)N2CCc3ccccc3C2)c(C)c1` is 28.7 µM; for `COC(=O)c1cccc2c1-c1ccccc1/C2=N/O` it is 16.5 µM; for `CN(C)c1nc(SCc2ccc(Cl)cc2)nc2c1CCCC2` it is 33.5 µM.

For `CC(=O)Nc1cccc(NC(=O)CSc2ccc(-c3ccccn3)nn2)c1`, the AC35 is 17 µM.

With `Cc1ccoc1C(=O)Nc1cccc(Oc2ccccc2)c1`, the AC35 was 6.15 µM. The figure for `Nc1nc(-c2ccccc2)c(-c2ccc([N+](=O)[O-])cc2)s1` is 39.6 µM; for `COc1ccc(/C=N/Nc2cc(C)nc(-n3nc(C)cc3C)n2)cc1` it is 1.54 µM. The value for `CCCC1CCC(c2ccc(/C(N)=N/O)cc2)CC1` (stereo unspecified) was 24 µM; that for `CNc1ccc2oc(C[C@H]3O[C@@]4(CC[C@H]3C)O[C@H]([C@H](C)C(=O)c3ccc[nH]3)[C@H](C)C[C@H]4C)nc2c1C(=O)O` was 0.833 µM. The value for `O=C1OCC(CO)(CO)N=C1NNc1ccc(Cl)c(Cl)c1` was 19.7 µM. With `Cc1ccc2c(C)c3ccc4ccccc4c3c[n+]2c1`, the AC35 was 0.0701 µM.

`CCOC(=O)N1C(=O)C2(CCCCC2)N(c2ccccc2Cl)C1=S`: the AC35 was 30.5 µM. With `COC(=O)C1=C(C)NC(C)=C(C(=O)OCC(C)C)C1c1ccccc1[N+](=O)[O-]` (stereo unspecified), the AC35 was 4.63 µM. The figure for `CCCn1c(=O)c(C(=O)NCc2ccc(OC)c(OC)c2)c(O)c2ccccc21` is 21.8 µM; for `c1ccc(-c2ccc(SCc3cccnc3)nn2)nc1` it is 35.5 µM. The figure for `Cc1nc(SCc2ccc(OCCC(C)C)cc2)n[nH]1` is 13.1 µM. The figure for `NC(=O)N=Nc1c2[nH]c3ccccc3nc-2c2ccccc12` is 21.1 µM; for `C=C(C)COc1ccc(-c2[nH]ncc2-c2ccc(Br)cc2)c(O)c1` it is 2.25 µM; for `CC(NC(=S)NC1CCC(C(C)(C)C)CC1)c1ccccc1` (stereo unspecified) it is 8.88 µM. As to `COc1ccc2oc(=O)c(-c3csc(Nc4cccc(O)c4)n3)cc2c1`, the AC35 was 12 µM.

Regarding `Nc1cc2c3ccccc3ccc2c2ccccc12`, the AC35 was 0.249 µM. `O=C(COc1ccccc1F)Nc1nc(-c2ccccn2)cs1`: the AC35 is 12 µM. As for `Nc1nc(-c2ccc(Oc3ccccc3)cc2)cs1`, the AC35 is 30.3 µM. The value for `COC(=O)COC(=O)c1ccccc1NC(=O)c1ccccc1` was 25.8 µM.

As for `O=C(c1ccc(Cl)cc1)N1CCN(c2ccc(F)cc2)CC1`, the AC35 is 35.2 µM.

As to `CN(C)c1ccc(C=c2c3cc(O)ccc3n3c2cc(-c2ccccc2)[n+]3C)cc1`, the AC35 was 0.247 µM.
